# Test results published in ChEMBL document CHEMBL1201862, “PubChem BioAssay data set” (2004).
# Several values for one entry are separate records, joined by “and”; a condition that tells them apart may be missing. Equal entries are not always repeated. Activity calls are given as the source filed them.
# Legend:
# Beta-galactosidase = Beta-galactosidase (Escherichia coli, UniProt Q8VNN2); experiment: Dose response counterscreen for EBI2 assay utilizing the enzyme, b-galactosidase.; format: functional
# [1] = molecular target: Potassium channel subfamily K member 9 (Homo sapiens, UniProt Q9NPC2); experiment: KCNK9 flux blockade, concentration-response – cell-based, FluxOR thallium flux, selectivity assay for TASK1 inhibitor project, SAR follow-up (AID 652211); format: functional;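 further: potency is for inhibitors of the channel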
# [2] = molecular target: Voltage-gated inwardly rectifying potassium channel KCNH2 (Homo sapiens, UniProt Q12809); experiment: off-target hERG block by TASK1 inhibitor candidates – FluxOR thallium flux, concentration-response, CHO cells, selectivity assay for TASK1 inhibitor project, SAR follow-up (AID 652194); format: functional, cell-based
# [3] = molecular target: Potassium channel subfamily K member 3 (Homo sapiens, UniProt O14649); experiment: inhibition of human KCNK3 channel flux – CHO cells, FluxOR thallium flux, SAR follow-up (AID 652212); format: functional
# [4] = activation of miR-122 Renilla sensor silencing – cell-based, Huh7 psiCHECK-miR122, Renilla luciferase, cherry-picked, dose response (AID 651956); format: functional;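 further: huh7 hepatoma cells stably carrying a psiCHECK-2 miR-122 sensor plasmid; renilla luciferase signal reporting endogenous miR-122 activity after 48 h compound exposure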
# [5] = general mammalian cell viability loss – inhibitor set, cherry-pick, set 2, cytotoxicity control for miR-122 modulator project, dose response (AID 720697); format: functional, cell-based
# [6] = Luminescence Cell-Based Dose Confirmation HTS to Identify Activators of 5'UTR Stem-Loop Driven Alpha-Synuclein mRNA Translation in H4 Neuroglioblastoma Cells. [Related pubchem assays: 1829 (Project Summary), 1814 (Primary HTS)]; format: functional
# [7] = Luminescence Cell-Based Dose Response HTS to Identify Activators of Luciferase Translation or Activity in H4 […] Cells. [Related pubchem assays: 1829 (Project Summary), 1814 (Primary HTS)]; format: functional
# [8] = molecular target: T1, Neuropeptide Y receptor type 1 (Homo sapiens, UniProt P25929); format: functional;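 further: HEK293 cells with a CNG channel challenged with NPY then isoproterenol; potency as antagonist that reverses NPY suppression of cAMP signal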
# T1 sequence (P25929 whole entry): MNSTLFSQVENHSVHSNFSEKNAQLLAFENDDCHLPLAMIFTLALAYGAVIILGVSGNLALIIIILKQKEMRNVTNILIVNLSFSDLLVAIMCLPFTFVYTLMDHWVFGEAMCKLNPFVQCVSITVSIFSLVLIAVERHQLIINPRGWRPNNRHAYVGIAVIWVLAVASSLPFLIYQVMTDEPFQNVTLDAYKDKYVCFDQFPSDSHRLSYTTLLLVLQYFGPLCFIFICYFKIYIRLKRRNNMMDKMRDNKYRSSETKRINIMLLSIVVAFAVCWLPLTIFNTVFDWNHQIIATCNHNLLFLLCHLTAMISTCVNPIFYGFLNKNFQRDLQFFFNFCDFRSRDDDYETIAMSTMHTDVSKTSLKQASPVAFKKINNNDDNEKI
# cells [9] = format: functional, cell-based
# H4 = experiment: Luminescence Cell-Based Dose Response HTS to Identify Activators of 5'UTR Stem-Loop Driven Prion Protein mRNA Translation in H4 Neuroglioblastoma Cells. [Related pubchem assays: 1829 (Project Summary), 1814 (Primary HTS)]; format: functional; conditions: Homo sapiens
# cells [10] = format: functional, cell-based; remark: listed apart in the source
# [11] = molecular target: T2, Neuropeptide Y receptor type 2 (Homo sapiens, UniProt P49146); format: functional, cell-based;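 further: HEK293 cells expressing the receptor and a CNG channel; stimulus was NPY near EC95 followed by isoproterenol to raise cAMP; antagonist potency measured as restoring cAMP signal that NPY suppresses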
# T2 sequence (P49146 whole entry): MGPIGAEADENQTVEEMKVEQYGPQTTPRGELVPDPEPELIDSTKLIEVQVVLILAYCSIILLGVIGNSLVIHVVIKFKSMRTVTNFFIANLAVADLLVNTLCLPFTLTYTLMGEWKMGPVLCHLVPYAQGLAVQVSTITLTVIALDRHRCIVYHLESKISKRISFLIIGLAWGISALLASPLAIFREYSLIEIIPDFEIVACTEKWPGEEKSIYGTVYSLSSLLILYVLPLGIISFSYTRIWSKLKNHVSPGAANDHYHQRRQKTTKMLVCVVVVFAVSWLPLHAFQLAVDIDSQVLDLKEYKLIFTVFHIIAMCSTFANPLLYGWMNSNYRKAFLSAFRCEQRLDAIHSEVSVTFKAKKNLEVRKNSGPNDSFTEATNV
# [12] = molecular target: SWI/SNF-related matrix-associated actin-dependent regulator of chromatin subfamily A member 2 (Homo sapiens, UniProt P51531); experiment: Luminescence-based cell-based high throughput dose response assay to identify activators of the function of SWI/SNF related, matrix associated, actin dependent regulator of chromatin, subfamily a, member 2 (SMARCA2, BRM).; format: functional
# [13] = Counterscreen for activators of the function of SWI/SNF related, matrix associated, actin dependent regulator of chromatin, subfamily a, member 2 (SMARCA2, BRM): Luminescence-based cell-based high throughput dose response assay to identify non-selective compounds using the VP16 reporter assay.; format: functional
# NS3 = NS3 (Hepatitis C virus, UniProt A3EZJ3); experiment: NS3h DNA-binding inhibition IC50 – biochemical, fluorescence polarization, ChemBridge library, dose response (AID 743264)
# Bcl-2-related protein A1 [14] = molecular target: T3, Bcl-2-related protein A1 (Mus musculus, UniProt Q07440); experiment: displacement of Bid BH3 peptide from Bfl-1 – biochemical, fluorescence polarization, FITC-Bid, mouse, primary screen (AID 432)
# T3 sequence (Q07440 whole entry): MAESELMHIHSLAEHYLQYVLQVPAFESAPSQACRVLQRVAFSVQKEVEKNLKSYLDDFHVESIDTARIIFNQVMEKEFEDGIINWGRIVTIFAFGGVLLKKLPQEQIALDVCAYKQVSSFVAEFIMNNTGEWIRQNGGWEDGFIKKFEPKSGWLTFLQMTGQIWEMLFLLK
# [15] = molecular target: Glyceraldehyde-3-phosphate dehydrogenase (Homo sapiens, UniProt P04406)
# [16] = HPDE-C7 pancreatic duct cell viability loss – fluorescence, HTS (AID 430); format: functional, cell-based; conditions: Homo sapiens
# Bcl-2-related protein A1 [17] = molecular target: T3, Bcl-2-related protein A1; experiment: small-molecule antagonists of Bfl-1/BH3 interaction – biochemical, TR-FRET, mouse Bfl-1, confirmation (AID 621);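 further: TR-FRET binding of GST-Bfl-1 to FITC-labelled Bid peptide via terbium antibody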
# [18] = viability loss of HPDE-C7K cells – cell-based, fluorescence, HTS, primary screen (AID 431); format: functional; conditions: Homo sapiens
# Bcl-2-related protein A1 [19] = molecular target: T3, Bcl-2-related protein A1; experiment: Bfl-1 binding inhibitors, SAR follow-up, biochemical, fluorescence polarization (AID 1070)
# [20] = viability of PTEN-deleted HCT116 cells – cell-based, HCT116 PTEN knockout, dose response (AID 1047); format: functional;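 further: HCT116 colon tumor cells with PTEN knocked out; cells exposed to compound for 60 hours before readout; potency for loss of cell viability measured by luminescence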
# [21] = molecular target: T4, Heat shock factor protein 1 (Mus musculus, UniProt P38532); experiment: enhancement of HSF1-driven luciferase signal – cell-based, NIH3T3, luminescence, dose retest, confirmation (AID 435004); format: functional;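 further: stress induced by proteasome inhibitor MG132 added 30 min after compound; luciferase reporter driven by HSF1 response element in NIH3T3 cells; actives raise luminescence as potentiators of the MG132 stress response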
# T4 sequence (P38532 whole entry): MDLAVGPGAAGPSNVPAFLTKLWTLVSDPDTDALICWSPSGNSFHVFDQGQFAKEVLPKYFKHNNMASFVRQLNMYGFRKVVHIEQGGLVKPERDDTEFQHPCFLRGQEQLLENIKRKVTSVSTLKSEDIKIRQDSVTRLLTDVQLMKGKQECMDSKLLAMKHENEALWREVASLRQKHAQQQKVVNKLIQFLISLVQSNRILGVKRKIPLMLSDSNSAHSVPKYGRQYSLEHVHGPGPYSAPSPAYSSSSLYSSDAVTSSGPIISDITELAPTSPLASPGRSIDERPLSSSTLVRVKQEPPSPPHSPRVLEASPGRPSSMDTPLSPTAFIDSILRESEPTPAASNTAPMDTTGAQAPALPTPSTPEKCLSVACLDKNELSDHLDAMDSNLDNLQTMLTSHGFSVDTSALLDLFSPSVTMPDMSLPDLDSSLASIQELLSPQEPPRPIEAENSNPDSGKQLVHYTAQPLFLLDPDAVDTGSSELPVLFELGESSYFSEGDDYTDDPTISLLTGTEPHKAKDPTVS
# [22] = viability loss in HEK293T cells – cell-based, cherry-picks, cytotoxicity control for HIV Vif inhibitor project, dose response (AID 652208); format: functional
# [23] = Counterscreen for […] of the human trace amine associated receptor 1 (TAAR1): Fluorescence-based cell-based high throughput dose response assay to identify nonselective Ga16 agonists.; format: functional
# [24] = molecular target: T5, Trace amine-associated receptor 1 (Homo sapiens, UniProt Q96RJ0); experiment: Fluorescence-based cell-based high throughput dose response assay to identify antagonists of the human trace amine associated receptor 1 (TAAR1).; format: functional
# T5 sequence (Q96RJ0 whole entry): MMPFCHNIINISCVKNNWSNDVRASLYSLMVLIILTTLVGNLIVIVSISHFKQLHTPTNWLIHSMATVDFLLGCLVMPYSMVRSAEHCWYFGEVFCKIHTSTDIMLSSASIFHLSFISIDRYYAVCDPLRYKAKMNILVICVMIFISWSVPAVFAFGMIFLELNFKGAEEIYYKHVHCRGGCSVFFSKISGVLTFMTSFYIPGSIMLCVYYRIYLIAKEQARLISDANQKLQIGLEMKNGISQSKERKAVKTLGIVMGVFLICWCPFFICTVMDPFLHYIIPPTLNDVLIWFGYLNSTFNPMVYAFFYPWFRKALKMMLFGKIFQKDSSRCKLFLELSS
# [25] = Counterscreen for antagonists of the human trace amine associated receptor 1 (hTAAR1): Fluorescence-based cell-based high throughput dose response assay to identify nonselective Ga16 antagonists.; format: functional
# [26] = molecular target: T5, Trace amine-associated receptor 1; experiment: Counterscreen for antagonists of the human trace amine associated receptor 1 (hTAAR1): Fluorescence-based cell-based high throughput dose response assay to identify TAAR1 Agonists.; format: functional
# [27] = molecular target: Protein disulfide-isomerase (Homo sapiens, UniProt P07237); experiment: inhibition of PDI-mediated insulin reduction – biochemical, turbidity, dry powder samples, set 2, confirmation (AID 652146)
# cells [28] = format: functional, cell-based; remark: listed apart in the source
# [29] = molecular target: T5, Trace amine-associated receptor 1; experiment: Fluorescence-based cell-based high throughput dose response assay to identify agonists of the human trace amine associated receptor 1 (TAAR1).; format: functional
# [30] = molecular target: T5, Trace amine-associated receptor 1; experiment: Counterscreen for agonists of the human trace amine associated receptor 1 (hTAAR1): Fluorescence-based cell-based high throughput dose response assay to identify hTAAR1 agonist that also desensitize TAAR1 receptor response.; format: functional
# cells [31] = format: functional, cell-based; remark: listed apart in the source
# [32] = molecular target: Potassium channel subfamily K member 3 (Rattus norvegicus, UniProt O54912); experiment: SAR analysis for the identification of selective inhibitors of the two-pore domain potassium channel TASK1(KCNK3):Automated Electrophysiology.; format: functional
# Chain of Potassium channel subfamily K member 3 (Rattus norvegicus, UniProt O54912) (O54912 whole entry, the tested form may be a part): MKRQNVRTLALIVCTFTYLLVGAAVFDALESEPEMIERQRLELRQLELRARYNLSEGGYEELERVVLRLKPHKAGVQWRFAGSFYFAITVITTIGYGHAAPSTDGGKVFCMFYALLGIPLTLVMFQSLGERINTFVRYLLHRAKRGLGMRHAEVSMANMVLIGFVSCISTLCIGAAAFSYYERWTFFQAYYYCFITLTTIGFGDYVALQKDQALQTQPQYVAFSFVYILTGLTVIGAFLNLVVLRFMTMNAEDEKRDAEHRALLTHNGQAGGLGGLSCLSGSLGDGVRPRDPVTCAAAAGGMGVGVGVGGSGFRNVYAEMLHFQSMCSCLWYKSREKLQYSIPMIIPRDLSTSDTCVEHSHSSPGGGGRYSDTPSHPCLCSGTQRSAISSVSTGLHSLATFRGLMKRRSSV
# Chain of Potassium channel subfamily K member 3 (Homo sapiens, UniProt O14649) (O14649 whole entry): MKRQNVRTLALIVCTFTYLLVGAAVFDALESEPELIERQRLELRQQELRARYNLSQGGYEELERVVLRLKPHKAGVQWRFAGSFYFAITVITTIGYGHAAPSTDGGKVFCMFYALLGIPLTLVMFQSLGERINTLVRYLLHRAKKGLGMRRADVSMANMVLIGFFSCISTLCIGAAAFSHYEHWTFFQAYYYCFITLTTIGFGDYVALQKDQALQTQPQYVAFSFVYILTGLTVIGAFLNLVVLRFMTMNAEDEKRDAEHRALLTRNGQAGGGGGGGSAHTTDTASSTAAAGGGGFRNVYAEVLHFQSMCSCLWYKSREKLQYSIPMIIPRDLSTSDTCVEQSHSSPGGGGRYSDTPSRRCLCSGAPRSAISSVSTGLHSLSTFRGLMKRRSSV
# Chain of Potassium channel subfamily K member 9 (Q9NPC2 whole entry): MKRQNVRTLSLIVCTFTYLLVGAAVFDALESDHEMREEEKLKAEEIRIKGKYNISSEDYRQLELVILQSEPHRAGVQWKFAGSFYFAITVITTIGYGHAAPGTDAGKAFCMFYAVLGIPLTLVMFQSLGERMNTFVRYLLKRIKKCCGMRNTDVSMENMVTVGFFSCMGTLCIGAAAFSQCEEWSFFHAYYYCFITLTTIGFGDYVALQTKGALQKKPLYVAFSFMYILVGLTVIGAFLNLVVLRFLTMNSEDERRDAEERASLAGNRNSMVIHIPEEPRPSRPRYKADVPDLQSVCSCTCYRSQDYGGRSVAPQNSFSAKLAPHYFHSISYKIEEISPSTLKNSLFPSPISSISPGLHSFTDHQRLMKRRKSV
# Chain of Beta-galactosidase (Q8VNN2 whole entry): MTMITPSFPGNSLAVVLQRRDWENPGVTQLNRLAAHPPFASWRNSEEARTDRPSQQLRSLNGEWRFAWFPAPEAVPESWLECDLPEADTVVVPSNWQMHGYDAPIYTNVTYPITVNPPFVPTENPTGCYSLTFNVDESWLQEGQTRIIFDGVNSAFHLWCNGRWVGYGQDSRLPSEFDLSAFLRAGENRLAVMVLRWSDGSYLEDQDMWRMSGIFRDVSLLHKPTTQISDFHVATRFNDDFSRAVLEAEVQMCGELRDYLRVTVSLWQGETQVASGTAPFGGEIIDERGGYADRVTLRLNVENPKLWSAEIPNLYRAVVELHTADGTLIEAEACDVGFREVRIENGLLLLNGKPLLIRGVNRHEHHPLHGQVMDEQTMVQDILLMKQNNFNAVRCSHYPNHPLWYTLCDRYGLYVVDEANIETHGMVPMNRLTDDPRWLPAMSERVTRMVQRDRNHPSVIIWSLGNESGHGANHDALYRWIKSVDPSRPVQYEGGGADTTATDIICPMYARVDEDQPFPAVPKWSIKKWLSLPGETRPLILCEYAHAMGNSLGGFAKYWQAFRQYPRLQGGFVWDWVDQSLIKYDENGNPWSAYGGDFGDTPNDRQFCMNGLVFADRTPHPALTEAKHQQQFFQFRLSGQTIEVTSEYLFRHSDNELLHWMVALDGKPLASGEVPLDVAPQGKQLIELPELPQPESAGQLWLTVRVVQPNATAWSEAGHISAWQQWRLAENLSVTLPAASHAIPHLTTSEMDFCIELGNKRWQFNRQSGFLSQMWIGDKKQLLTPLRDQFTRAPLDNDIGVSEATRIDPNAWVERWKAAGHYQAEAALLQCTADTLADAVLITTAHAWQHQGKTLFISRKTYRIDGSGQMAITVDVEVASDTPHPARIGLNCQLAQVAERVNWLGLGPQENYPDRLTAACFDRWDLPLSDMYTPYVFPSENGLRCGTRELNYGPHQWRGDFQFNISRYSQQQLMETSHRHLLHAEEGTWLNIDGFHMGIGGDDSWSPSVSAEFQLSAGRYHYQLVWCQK
# Chain of SWI/SNF-related matrix-associated actin-dependent regulator of chromatin subfamily A member 2 (P51531 whole entry): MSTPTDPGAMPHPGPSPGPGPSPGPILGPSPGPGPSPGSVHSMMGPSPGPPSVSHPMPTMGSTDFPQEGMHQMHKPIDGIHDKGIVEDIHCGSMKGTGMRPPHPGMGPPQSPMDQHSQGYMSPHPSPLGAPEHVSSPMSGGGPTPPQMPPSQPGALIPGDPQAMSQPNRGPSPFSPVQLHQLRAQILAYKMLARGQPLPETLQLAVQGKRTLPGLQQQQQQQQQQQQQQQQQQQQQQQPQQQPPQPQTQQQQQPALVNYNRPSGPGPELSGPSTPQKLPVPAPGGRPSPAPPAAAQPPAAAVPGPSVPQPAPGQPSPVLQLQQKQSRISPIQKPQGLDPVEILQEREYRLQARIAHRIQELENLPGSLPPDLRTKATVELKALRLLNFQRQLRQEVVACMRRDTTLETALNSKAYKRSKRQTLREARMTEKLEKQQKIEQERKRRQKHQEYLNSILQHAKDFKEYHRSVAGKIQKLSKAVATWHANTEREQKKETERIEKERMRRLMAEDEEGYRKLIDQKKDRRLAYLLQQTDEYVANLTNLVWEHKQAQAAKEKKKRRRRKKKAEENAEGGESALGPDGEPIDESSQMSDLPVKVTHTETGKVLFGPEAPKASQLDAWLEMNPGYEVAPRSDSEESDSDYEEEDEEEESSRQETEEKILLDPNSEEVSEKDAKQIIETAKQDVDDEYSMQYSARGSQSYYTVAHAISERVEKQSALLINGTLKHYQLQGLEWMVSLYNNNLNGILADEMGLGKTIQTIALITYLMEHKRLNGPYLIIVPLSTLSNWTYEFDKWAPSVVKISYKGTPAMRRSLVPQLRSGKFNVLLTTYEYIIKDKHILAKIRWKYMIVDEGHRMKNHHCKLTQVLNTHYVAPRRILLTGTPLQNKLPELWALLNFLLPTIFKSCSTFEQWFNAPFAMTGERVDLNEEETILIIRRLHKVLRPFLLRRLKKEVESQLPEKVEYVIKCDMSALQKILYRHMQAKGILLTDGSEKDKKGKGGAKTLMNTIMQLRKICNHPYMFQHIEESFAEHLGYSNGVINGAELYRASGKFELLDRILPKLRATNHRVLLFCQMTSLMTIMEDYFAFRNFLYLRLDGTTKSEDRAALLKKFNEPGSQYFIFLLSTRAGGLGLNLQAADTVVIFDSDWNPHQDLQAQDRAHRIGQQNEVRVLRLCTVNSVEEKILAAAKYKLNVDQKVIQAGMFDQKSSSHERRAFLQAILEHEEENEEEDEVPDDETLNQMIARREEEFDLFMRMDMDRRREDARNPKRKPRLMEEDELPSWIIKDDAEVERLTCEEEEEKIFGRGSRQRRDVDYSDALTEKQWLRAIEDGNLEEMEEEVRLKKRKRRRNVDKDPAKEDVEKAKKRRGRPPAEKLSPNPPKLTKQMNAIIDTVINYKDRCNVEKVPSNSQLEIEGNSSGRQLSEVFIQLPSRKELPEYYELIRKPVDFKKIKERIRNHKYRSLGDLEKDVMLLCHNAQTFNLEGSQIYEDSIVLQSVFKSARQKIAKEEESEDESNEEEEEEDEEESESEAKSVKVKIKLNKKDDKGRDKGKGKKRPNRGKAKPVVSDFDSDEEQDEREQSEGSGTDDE
# Chain of Voltage-gated inwardly rectifying potassium channel KCNH2 (Q12809 whole entry): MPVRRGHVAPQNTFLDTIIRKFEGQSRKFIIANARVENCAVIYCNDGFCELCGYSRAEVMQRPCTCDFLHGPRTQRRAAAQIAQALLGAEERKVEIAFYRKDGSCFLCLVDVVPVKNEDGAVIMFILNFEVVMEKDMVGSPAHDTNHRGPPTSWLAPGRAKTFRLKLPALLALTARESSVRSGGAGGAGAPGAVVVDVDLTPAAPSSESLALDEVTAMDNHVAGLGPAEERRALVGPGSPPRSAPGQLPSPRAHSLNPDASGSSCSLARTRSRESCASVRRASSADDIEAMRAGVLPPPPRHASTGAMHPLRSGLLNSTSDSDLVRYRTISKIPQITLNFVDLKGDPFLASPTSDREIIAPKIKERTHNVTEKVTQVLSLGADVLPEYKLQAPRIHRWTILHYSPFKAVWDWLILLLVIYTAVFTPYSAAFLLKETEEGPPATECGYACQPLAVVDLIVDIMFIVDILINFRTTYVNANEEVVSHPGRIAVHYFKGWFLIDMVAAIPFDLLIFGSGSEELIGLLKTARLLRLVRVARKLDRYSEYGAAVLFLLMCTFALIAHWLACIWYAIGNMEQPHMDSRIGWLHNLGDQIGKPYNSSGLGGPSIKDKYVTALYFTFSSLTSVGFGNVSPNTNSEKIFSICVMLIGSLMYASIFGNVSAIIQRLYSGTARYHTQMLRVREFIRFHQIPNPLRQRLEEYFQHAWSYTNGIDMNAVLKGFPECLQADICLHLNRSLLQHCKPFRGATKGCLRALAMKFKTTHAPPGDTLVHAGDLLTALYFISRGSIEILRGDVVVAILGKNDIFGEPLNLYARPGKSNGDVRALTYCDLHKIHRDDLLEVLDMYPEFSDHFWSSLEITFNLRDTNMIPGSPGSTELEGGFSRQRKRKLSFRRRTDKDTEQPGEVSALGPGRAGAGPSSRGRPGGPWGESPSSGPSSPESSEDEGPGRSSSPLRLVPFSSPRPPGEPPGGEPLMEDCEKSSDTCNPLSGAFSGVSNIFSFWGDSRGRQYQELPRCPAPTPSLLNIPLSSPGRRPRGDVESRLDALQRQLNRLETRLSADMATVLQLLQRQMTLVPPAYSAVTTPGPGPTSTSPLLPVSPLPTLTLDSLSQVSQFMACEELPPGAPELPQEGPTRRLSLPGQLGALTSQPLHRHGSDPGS
smiles,measurement,setting,value
O=C(/C=C/c1ccc(F)cc1)N1CCN(Cc2ccccc2)CC1,IC50,Beta-galactosidase,> 80 µM (inactive)
COc1ccccc1NC(=O)c1cccc(NC(=O)C2CCCC2)c1,IC50,[1],1.55 µM (active)
same,IC50,[2],43.5 µM (active)
same,IC50,[3],0.238 µM (active)
C[C@H]1CN([C@@H](C)CO)S(=O)(=O)c2ccc(-c3ccc(C(=O)N(C)C)cc3)cc2O[C@H]1CN(C)C(=O)C1CCC1,AC50,[4],10.9 µM (active)
same,AC50,[5],2.2 µM (active)
O=c1c2ccccc2nc2c3ccccc3c(NCCN3CCOCC3)nn12,EC50,[6],> 120 µM (not active)
same,EC50,[7],18 µM (active)
same,IC50,[8],4.38 µM (active)
same,EC50,cells [9],> 350 µM (not active)
same,EC50,H4,> 120 µM (inconclusive)
same,EC50,cells [10],> 350 µM (not active)
same,IC50,[11],> 35 µM (not active)
same,EC50,[12],> 10.1 µM (inactive)
same,EC50,[13],> 91.2 µM (inactive)
Cc1ccc(N2C(=O)NC(=O)/C(=C\c3ccc(-c4ccc(Cl)c(C(=O)O)c4)o3)C2=O)cc1,IC50,NS3,133 µM (active)
COc1ccc(-c2cc(C(F)(F)F)nc(S(C)(=O)=O)n2)cc1OC,IC50,Bcl-2-related protein A1 [14],25.4 µM (active)
same,IC50,[15],> 100 µM (not active)
same,EC50,[16],4.49 µM (active)
same,IC50,Bcl-2-related protein A1 [17],12.7 µM (active) and 4.51 µM (active)
same,EC50,[18],3.47 µM (active)
same,IC50,Bcl-2-related protein A1 [19],23.2 µM (active)
same,EC50,[20],32.1 µM (active)
same,EC50,[21],5.47 µM (active)
same,AC50,[22],13.2 µM (active)
O=C(CCN1C(=O)C2C3C=CC(C3)C2C1=O)NCCc1ccccc1 (configuration not stated),EC50,[23],> 29.9 µM (inactive)
same,IC50,[24],> 29.9 µM (inactive)
same,IC50,[25],> 29.9 µM (inactive)
same,EC50,[26],> 29.9 µM (inactive)
CCOC(=O)C1(CCOc2ccccc2)CCN(Cc2ccc(OC)c(Cl)c2)CC1,AC50,[27],> 30 µM (inactive)
CC(C)[C@H](NC(=O)CC1CCCC1)C(=O)N1CCC[C@H]1C(=O)NCCc1ccccc1Cl,IC50,cells [28],> 29.9 µM (inactive)
same,EC50,[29],2.01 µM (active)
same,IC50,[30],4 µM (active)
same,EC50,cells [31],> 29.9 µM (inactive)
Cc1cccc(C(=O)Nc2cccc(NC(=O)c3ccccc3OC(F)(F)F)c2)c1,IC50,[1],1.05 µM (active)
same,IC50,[32],0.06 µM (active)
same,IC50,[3],0.028 µM (active)
